Test results taken from patent US6683070B2, “Aqueous suspension with good redispersibility” (Senju Pharmaceutical Co., Ltd., priority 1997, dated 2004).

What was measured:
[1] = Surface tension of aqueous suspension (Du Noüy tension meter K122); format: physicochemical
Procedure: (§1) Solutions containing a suspending agent in concentrations ranging from 0.000001 to 0.5 w/v % were first prepared. A test drug was added to the solutions to prepare aqueous suspensions. The surface tension of each aqueous suspension thus prepared was measured with the Du Noüy tension meter K122 (Krüss). The suspensions were then filled into 5 ml colorless polypropylene bottles and allowed to stand at 25° C. for 4 days. Each bottle was caused to spin (60 rpm) on the variable mix rotor VMR-5 (60 rpm, manufactured by Iuchi) and the time required for redispersion was measured. In addition, the condition of the redispersed particles was visually examined. As the suspending agent, hydroxypropylmethyl cellulose [Metolose 60SH (TC-5E); manufactured by Shin-Etsu Chemical Co., Ltd.; hereinafter abbreviated as HPMC], methylcellulose (Metolose SM-25; manufactured by Shin-Etsu Chemical Co., Ltd.; abbreviated as MC), or polyvinylpyrrolidone (K30; manufactured by BASF; abbreviated as PVP) was used. As the test drug, fluorometholone 0.05 w/v % or 0.1 w/v % or indomethacin 0.2 w/v % or 1.0 w/v % was used.

[2] = Redispersibility test: redispersion time and visual condition after standing at 25° C. for 4 days; format: physicochemical
Procedure: as §1

[3] = fluorometholone 0.05 w/v % suspension
[4] = fluorometholone 0.1 w/v % suspension
[5] = fluorometholone 0.1 w/v % suspension, MC
[6] = fluorometholone 0.1 w/v % suspension, PVP
[7] = fluorometholone 0.05 w/v % suspension, 0.0001 to 0.002 w/v % HPMC
[8] = fluorometholone 0.1 w/v % suspension, 0.000005 to 0.0001 w/v % HPMC
[9] = fluorometholone 0.1 w/v % suspension, 0.0001 to 0.01 w/v % HPMC
[10] = fluorometholone 0.1 w/v % suspension, 0.0003 to 0.002 w/v % PVP
[11] = fluorometholone 0.1 w/v % suspension, MC 0.0001 w/v % or less
[12] = indomethacin 0.2 w/v % suspension
[13] = indomethacin 1.0 w/v % suspension
[14] = indomethacin 0.2 w/v % suspension, HPMC below 0.0001 w/v %
[15] = indomethacin 1.0 w/v % suspension, HPMC less than 0.0005 w/v %

SMILES: CC(=O)[C@@]1(O)CC[C@H]2[C@@H]3C[C@H](C)C4=CC(=O)C=C[C@]4(C)[C@@]3(F)[C@@H](O)C[C@@]21C [fluorometholone]
- surface tension ([1]; fluorometholone 0.05 w/v % suspension, 0.0001 w/v % HPMC): 65.1 mN/m
- surface tension ([1]; fluorometholone 0.05 w/v % suspension, 0.001 w/v % PVP): 69.5 mN/m
- surface tension ([1]; fluorometholone 0.05 w/v % suspension, 0.002 w/v % HPMC): 50.5 mN/m
- HPMC concentration at which the decrease in surface tension almost ceased [1, 3]: 0.002 w/v %
- HPMC concentration at which the surface tension began to decline [1, 3]: 0.0001 w/v %
- PVP concentration at which the decrease in surface tension almost ceased ([1]; fluorometholone 0.05 w/v % suspension, PVP): 0.001 w/v %
- surface tension ([1]; fluorometholone 0.05 w/v % suspension, PVP at the concentration where the decline began (printed 0.0902 w/v % PVC)): 72.3 mN/m
- surface tension ([1]; fluorometholone 0.1 w/v % suspension, 0.002 w/v % PVP): 69.5 mN/m
- surface tension ([1]; fluorometholone 0.1 w/v % suspension, 0.01 w/v % MC): 54.5 mN/m
- HPMC concentration at which the decrease in surface tension almost ceased [1, 4]: 0.01 w/v
- HPMC concentration at which the surface tension began to decline [1, 4]: 0.0001 w/v %
- MC concentration at which the decrease in surface tension almost ceased [1, 5]: 0.01 w/v %
- MC concentration at which the surface tension began to decline [1, 5]: 0.0001 w/v %
- surface tension ([1]; fluorometholone 0.1 w/v % suspension, MC 0.0001 w/v % and below): ~72.5 mN/m
- PVP concentration at which the decrease in surface tension almost ceased [1, 6]: 0.002 w/v %
- PVP concentration at which the surface tension began to decline [1, 6]: 0.0003 w/v %
- surface tension ([1]; fluorometholone 0.1 w/v % suspension, PVP less than 0.0003 w/v %): ~72.5 mN/m
- condition of the dispersion [2, 7]: satisfactory
- time required for redispersion [2, 7]: about 6 seconds
- condition of the redispersed particles [2, 8]: the dispersed particles aggregated and floated, failing to give a uniform suspension
- time required for redispersion [2, 8]: 2 s
- condition of the redispersed particles [2, 9]: a uniform suspension was obtained without aggregation of suspended particles
- redispersion time [2, 9]: less than 4 seconds
- condition of the redispersed particles ([2]; fluorometholone 0.1 w/v % suspension, 0.0001 to 0.01 w/v % MC): redispersion taking place rapidly without aggregation of dispersed particles
- condition of the dispersion [2, 10]: satisfactory
- time necessary for redispersion [2, 10]: about 6 seconds
- redispersion time ([2]; fluorometholone 0.1 w/v % suspension, HPMC over 0.01 w/v %): exceeded 5 seconds
- condition of the redispersed particles [2, 11]: the dispersed particles aggregated and floated, failing to give a uniform suspension
- redispersion time [2, 11]: ≤ 2 s
- redispersion time ([2]; fluorometholone 0.1 w/v % suspension, MC over 0.01 w/v %): ~20 s
- redispersion time ([2]; fluorometholone 0.1 w/v % suspension, PVP in excess of 0.002 w/v %): ≥ 18 s

SMILES: COc1ccc2c(c1)c(CC(=O)O)c(C)n2C(=O)c1ccc(Cl)cc1 [indomethacin]
- surface tension ([1]; indomethacin 0.2 w/v % suspension, 0.01 w/v % HPMC): 48 mN/m
- HPMC concentration at which the decrease in surface tension almost ceased [1, 12]: 0.01 w/v %
- HPMC concentration at which the surface tension began to decline [1, 12]: 0.0001 w/v %
- surface tension ([1]; indomethacin 0.2 w/v % suspension, HPMC less than 0.0001 w/v %): ~72 mN/m
- surface tension ([1]; indomethacin 1.0 w/v % suspension, 0.005 w/v % HPMC): 49.7 mN/m
- HPMC concentration at which the decrease in surface tension almost ceased [1, 13]: 0.005 w/v %
- HPMC concentration at which the surface tension began to decline [1, 13]: 0.0005 w/v %
- surface tension ([1]; indomethacin 1.0 w/v % suspension, HPMC below 0.0005 w/v %): ~72.73 mN/m
- condition of the redispersed particles ([2]; indomethacin 0.2 w/v % suspension, 0.0001 to 0.01 w/v % HPMC): the drug being rapidly redispersed without aggregation
- condition of the redispersed particles [2, 14]: the dispersed particles aggregated and floated, failing to give a uniform suspension
- redispersion time [2, 14]: ≤ 7 s
- redispersion time ([2]; indomethacin 0.2 w/v % suspension, HPMC over 0.01 w/v %): exceeding 12 seconds
- condition of the redispersed particles ([2]; indomethacin 1.0 w/v % suspension, 0.0005 to 0.005 w/v % HPMC): the drug particles being rapidly redispersed without aggregation
- redispersion time ([2]; indomethacin 1.0 w/v % suspension, HPMC exceeded 0.005 w/v %): more than 20 seconds
- condition of the redispersed particles [2, 15]: the dispersed particles aggregated and floated, failing to give a uniform suspension
- redispersion time [2, 15]: not more than 7 seconds
